Key:
Assay in all cases: cells
NCI-H2126 = assay type: functional, cell-based, Homo sapiens; settings: Homo sapiens, NCI-H2126;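 note: growth inhibition of the cancer cell line, determined with a cell viability readout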
Description: SANGER: Inhibition of human NCI-H2126 cell growth in a cell viability assay.

OS-RC-2 = assay type: functional, cell-based, Homo sapiens; settings: Homo sapiens, OS-RC-2;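 note: growth inhibition of human OS-RC-2 cells, measured by a cell viability assay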
Description: SANGER: Inhibition of human OS-RC-2 cell growth in a cell viability assay.

MHH-PREB-1 = assay type: functional, cell-based, Homo sapiens; settings: Homo sapiens, MHH-PREB-1;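 note: cell viability assay measuring inhibition of proliferation of human MHH-PREB-1 cells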
Description: SANGER: Inhibition of human MHH-PREB-1 cell growth in a cell viability assay.

Calu-6 = assay type: functional, cell-based, Homo sapiens; settings: Homo sapiens, Calu-6;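 note: growth of human Calu-6 cells, read out by a cell viability assay, IC50 marking inhibition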
Description: SANGER: Inhibition of human Calu-6 cell growth in a cell viability assay.

KM-H2 = assay type: functional, cell-based, Homo sapiens; settings: Homo sapiens, KM-H2;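 note: growth inhibition of KM-H2 cells, read out by a cell viability assay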
Description: SANGER: Inhibition of human KM-H2 cell growth in a cell viability assay.

GOTO = assay type: functional, cell-based, Homo sapiens; settings: Homo sapiens, GOTO;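 note: growth inhibition of GOTO cells, read out by a cell viability assay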
Description: SANGER: Inhibition of human GOTO cell growth in a cell viability assay.

A253 cell line = assay type: functional, cell-based, Homo sapiens; settings: Homo sapiens, A253;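 note: growth inhibition of A253 cells, read out with a cell viability assay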
Description: SANGER: Inhibition of human A253 cell growth in a cell viability assay.

A3-KAW = assay type: functional, cell-based, Homo sapiens; settings: Homo sapiens, A3-KAW;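 note: growth inhibition of human A3-KAW cells, read out with a cell viability assay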
Description: SANGER: Inhibition of human A3-KAW cell growth in a cell viability assay.

KS-1 = assay type: functional, cell-based; settings: Homo sapiens;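 note: growth inhibition of KS-1 cells, read out with a cell viability assay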
Description: SANGER: Inhibition of human KS-1 cell growth in a cell viability assay.

CW-2 = assay type: functional, cell-based, Homo sapiens; settings: Homo sapiens, CW-2;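 note: growth inhibition of CW-2 cells, read out by a cell viability assay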
Description: SANGER: Inhibition of human CW-2 cell growth in a cell viability assay.

NKM-1 = assay type: functional, cell-based, Homo sapiens; settings: Homo sapiens, NKM-1;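 note: growth inhibition of NKM-1 cells, read out with a cell viability assay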
Description: SANGER: Inhibition of human NKM-1 cell growth in a cell viability assay.

OMC-1 = assay type: functional, cell-based, Homo sapiens; settings: Homo sapiens, OMC-1;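 note: growth inhibition of the OMC-1 cell line, measured by a cell viability assay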
Description: SANGER: Inhibition of human OMC-1 cell growth in a cell viability assay.

AM-38 = assay type: functional, cell-based, Homo sapiens; settings: Homo sapiens, AM-38;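 note: growth inhibition of AM-38 cells of human origin, read out by a cell viability assay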
Description: SANGER: Inhibition of human AM-38 cell growth in a cell viability assay.

DSH1 = assay type: functional, cell-based; settings: Homo sapiens;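 note: growth inhibition of human DSH1 cells, measured with a cell viability readout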
Description: SANGER: Inhibition of human DSH1 cell growth in a cell viability assay.

LB996-RCC = assay type: functional, cell-based, Homo sapiens; settings: Homo sapiens, LB996-RCC
Description: SANGER: Inhibition of human LB996-RCC cell growth in a cell viability assay.

KARPAS-299 = assay type: functional, cell-based, Homo sapiens; settings: Homo sapiens, KARPAS-299
Description: SANGER: Inhibition of human KARPAS-299 cell growth in a cell viability assay.

MN-60 = assay type: functional, cell-based, Homo sapiens; settings: Homo sapiens, MN-60;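 note: growth inhibition of the MN-60 cell line, determined with a cell viability assay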
Description: SANGER: Inhibition of human MN-60 cell growth in a cell viability assay.

KURAMOCHI = assay type: functional, cell-based, Homo sapiens; settings: Homo sapiens, KURAMOCHI;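 note: growth inhibition of KURAMOCHI cells, read out with a cell viability assay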
Description: SANGER: Inhibition of human KURAMOCHI cell growth in a cell viability assay.

NCI-H1581 = assay type: functional, cell-based, Homo sapiens; settings: Homo sapiens, NCI-H1581;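 note: cell growth inhibition read out by a viability assay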
Description: SANGER: Inhibition of human NCI-H1581 cell growth in a cell viability assay.

NCI-H446 = assay type: functional, cell-based, Homo sapiens; settings: Homo sapiens, NCI-H446;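 note: growth inhibition of NCI-H446 cells determined by a cell viability assay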
Description: SANGER: Inhibition of human NCI-H446 cell growth in a cell viability assay.

EW-1 = assay type: functional, cell-based, Homo sapiens; settings: Homo sapiens, EW-1;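 note: growth inhibition of the human EW-1 cell line, read out by a cell viability assay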
Description: SANGER: Inhibition of human EW-1 cell growth in a cell viability assay.

COLO-320-HSR = assay type: functional, cell-based, Homo sapiens; settings: Homo sapiens, COLO-320-HSR;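 note: growth inhibition of COLO-320-HSR cells, determined with a cell viability assay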
Description: SANGER: Inhibition of human COLO-320-HSR cell growth in a cell viability assay.

TE-6 = assay type: functional, cell-based, Homo sapiens; settings: Homo sapiens, TE-6;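 note: growth inhibition of TE-6 cells, read out with a cell viability assay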
Description: SANGER: Inhibition of human TE-6 cell growth in a cell viability assay.

LB2241-RCC = assay type: functional, cell-based, Homo sapiens; settings: Homo sapiens, LB2241-RCC;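 note: cell viability assay measuring how strongly the cultured human renal carcinoma line is prevented from growing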
Description: SANGER: Inhibition of human LB2241-RCC cell growth in a cell viability assay.

NB13 = assay type: functional, cell-based, Homo sapiens; settings: Homo sapiens, NB13;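 note: cell viability readout measuring growth inhibition of human NB13 cells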
Description: SANGER: Inhibition of human NB13 cell growth in a cell viability assay.

GCIY = assay type: functional, cell-based, Homo sapiens; settings: Homo sapiens, GCIY;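 note: growth inhibition of the human GCIY cell line, read out by a cell viability assay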
Description: SANGER: Inhibition of human GCIY cell growth in a cell viability assay.

LNCaP-Clone-FGC = assay type: functional, cell-based, Homo sapiens; settings: Homo sapiens, LNCaP-Clone-FGC
Description: SANGER: Inhibition of human LNCaP-Clone-FGC cell growth in a cell viability assay.

LB2518-MEL = assay type: functional, cell-based; settings: Homo sapiens;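 note: growth inhibition of human LB2518-MEL cells, measured with a cell viability assay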
Description: SANGER: Inhibition of human LB2518-MEL cell growth in a cell viability assay.

NOMO-1 = assay type: functional, cell-based, Homo sapiens; settings: Homo sapiens, NOMO-1;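 note: growth inhibition of human NOMO-1 cells measured by a cell viability assay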
Description: SANGER: Inhibition of human NOMO-1 cell growth in a cell viability assay.

NMC-G1 = assay type: functional, cell-based, Homo sapiens; settings: Homo sapiens, NMC-G1;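 note: growth inhibition of the NMC-G1 cell line, measured with a cell viability read-out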
Description: SANGER: Inhibition of human NMC-G1 cell growth in a cell viability assay.

NCI-H747 = assay type: functional, cell-based, Homo sapiens; settings: Homo sapiens, NCI-H747;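 note: growth inhibition of human NCI-H747 cells, read out by a cell viability assay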
Description: SANGER: Inhibition of human NCI-H747 cell growth in a cell viability assay.

SK-UT-1 = assay type: functional, cell-based, Homo sapiens; settings: Homo sapiens, SK-UT-1;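 note: growth inhibition of SK-UT-1 cells, measured by a cell viability assay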
Description: SANGER: Inhibition of human SK-UT-1 cell growth in a cell viability assay.

HT-144 = assay type: functional, cell-based, Homo sapiens; settings: Homo sapiens, HT-144
Description: SANGER: Inhibition of human HT-144 cell growth in a cell viability assay.

TE-1 = assay type: functional, cell-based, Homo sapiens; settings: Homo sapiens, TE-1;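 note: growth inhibition of the human TE-1 cell line, read out with a cell viability assay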
Description: SANGER: Inhibition of human TE-1 cell growth in a cell viability assay.

ALL-PO = assay type: functional, cell-based, Homo sapiens; settings: Homo sapiens, ALL-PO;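 note: growth inhibition of ALL-PO cells, read out by a cell viability assay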
Description: SANGER: Inhibition of human ALL-PO cell growth in a cell viability assay.

MLMA = assay type: functional, cell-based, Homo sapiens; settings: Homo sapiens, MLMA;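 note: growth inhibition of MLMA cells (human), determined through a cell viability readout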
Description: SANGER: Inhibition of human MLMA cell growth in a cell viability assay.

RPMI-8226 = assay type: functional, cell-based, Homo sapiens; settings: Homo sapiens, RPMI-8226
Description: SANGER: Inhibition of human RPMI-8226 cell growth in a cell viability assay.

HL-60 = assay type: functional, cell-based, Homo sapiens; settings: Homo sapiens, HL-60;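 note: growth inhibition of human HL-60 cells, read out with a cell viability assay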
Description: SANGER: Inhibition of human HL-60 cell growth in a cell viability assay.

NCI-H1304 = assay type: functional, cell-based, Homo sapiens; settings: Homo sapiens, NCI-H1304;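 note: growth inhibition of the cancer cell line, measured in a cell viability assay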
Description: SANGER: Inhibition of human NCI-H1304 cell growth in a cell viability assay.

KINGS-1 = assay type: functional, cell-based, Homo sapiens; settings: Homo sapiens, KINGS-1;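 note: cell viability assay measuring suppression of KINGS-1 cell growth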
Description: SANGER: Inhibition of human KINGS-1 cell growth in a cell viability assay.

SW982 = assay type: functional, cell-based; settings: Homo sapiens;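 note: growth inhibition of SW982 cells, read out with a cell viability assay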
Description: SANGER: Inhibition of human SW982 cell growth in a cell viability assay.

GT3TKB = assay type: functional, cell-based, Homo sapiens; settings: Homo sapiens, GT3TKB;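 note: growth inhibition of the cell line, read out with a cell viability assay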
Description: SANGER: Inhibition of human GT3TKB cell growth in a cell viability assay.

NCI-H1838 = assay type: functional, cell-based, Homo sapiens; settings: Homo sapiens, NCI-H1838;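 note: growth inhibition of NCI-H1838 cells, determined with a cell viability readout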
Description: SANGER: Inhibition of human NCI-H1838 cell growth in a cell viability assay.

D-502MG = assay type: functional, cell-based, Homo sapiens; settings: Homo sapiens, D-502MG
Description: SANGER: Inhibition of human D-502MG cell growth in a cell viability assay.

HCE-4 = assay type: functional, cell-based; settings: Homo sapiens;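 note: cell viability assay measuring inhibition of growth in the human HCE-4 cell line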
Description: SANGER: Inhibition of human HCE-4 cell growth in a cell viability assay.

HD-MY-Z = assay type: functional, cell-based, Homo sapiens; settings: Homo sapiens, HD-MY-Z;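 note: growth inhibition of HD-MY-Z cells, read out with a cell viability assay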
Description: SANGER: Inhibition of human HD-MY-Z cell growth in a cell viability assay.

EKVX = assay type: functional, cell-based, Homo sapiens; settings: Homo sapiens, EKVX;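 note: growth inhibition of human EKVX cells, read out with a cell viability assay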
Description: SANGER: Inhibition of human EKVX cell growth in a cell viability assay.

TGW = assay type: functional, cell-based, Homo sapiens; settings: Homo sapiens, TGW;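 note: growth inhibition of human TGW cells, read out with a cell viability assay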
Description: SANGER: Inhibition of human TGW cell growth in a cell viability assay.

`O=C1NC(=O)c2c1c(-c1ccccc1Cl)cc1[nH]c3ccc(O)cc3c21` was tested, and the IC50 (NCI-H2126) was > 2 µM, the IC50 (OS-RC-2) was > 2 µM and the IC50 (MHH-PREB-1) was 0.523 µM. For the same compound, the IC50 (Calu-6) was > 2 µM, the IC50 (KM-H2) was > 2 µM and the IC50 (GOTO) was 0.666 µM. The IC50 (A253 cell line) was > 2 µM, the IC50 (A3-KAW) was 0.516 µM and the IC50 (KS-1) was > 2 µM. For the same compound, the IC50 (CW-2) was > 2 µM, the IC50 (NKM-1) was > 2 µM and the IC50 (OMC-1) was > 2 µM. The IC50 (AM-38) was > 2 µM, the IC50 (DSH1) was > 2 µM and the IC50 (LB996-RCC) was > 2 µM. For the same compound, the IC50 (KARPAS-299) was > 2 µM, the IC50 (MN-60) was 1.2 µM and the IC50 (KURAMOCHI) was > 2 µM. For the same compound, the IC50 (NCI-H1581) was > 2 µM, the IC50 (NCI-H446) was > 2 µM and the IC50 (EW-1) was 0.338 µM. The IC50 (COLO-320-HSR) was 1.82 µM, the IC50 (TE-6) was > 2 µM and the IC50 (LB2241-RCC) was 0.394 µM. For the same compound, the IC50 (NB13) was 0.946 µM, the IC50 (GCIY) was > 2 µM and the IC50 (LNCaP-Clone-FGC) was > 2 µM. The IC50 (LB2518-MEL) was > 2 µM, the IC50 (NOMO-1) was > 2 µM and the IC50 (NMC-G1) was > 2 µM. The IC50 (NCI-H747) was > 2 µM, the IC50 (SK-UT-1) was > 2 µM and the IC50 (HT-144) was > 2 µM. The IC50 (TE-1) was > 2 µM, the IC50 (ALL-PO) was > 2 µM and the IC50 (MLMA) was 0.541 µM. For the same compound, the IC50 (RPMI-8226) was > 2 µM, the IC50 (HL-60) was > 2 µM and the IC50 (NCI-H1304) was > 2 µM. For the same compound, the IC50 (KINGS-1) was > 2 µM, the IC50 (SW982) was > 2 µM and the IC50 (GT3TKB) was > 2 µM. For the same compound, the IC50 (NCI-H1838) was > 2 µM, the IC50 (D-502MG) was > 2 µM and the IC50 (HCE-4) was > 2 µM.
With `CS(=O)(=O)N1CCN(Cc2cc3nc(-c4cccc5[nH]ncc45)nc(N4CCOCC4)c3s2)CC1` [PICTILISIB] the IC50 (NCI-H2126) was > 4 µM, the IC50 (OS-RC-2) was > 4 µM and the IC50 (HD-MY-Z) was > 4 µM. The IC50 (MHH-PREB-1) was 0.114 µM, the IC50 (Calu-6) was > 4 µM and the IC50 (KM-H2) was > 4 µM. The IC50 (GOTO) was > 4 µM, the IC50 (A253 cell line) was > 4 µM and the IC50 (A3-KAW) was > 4 µM. The IC50 (KS-1) was 2.11 µM, the IC50 (CW-2) was > 4 µM and the IC50 (NKM-1) was 0.593 µM. For the same compound, the IC50 (OMC-1) was 0.751 µM, the IC50 (AM-38) was > 4 µM and the IC50 (DSH1) was > 4 µM. For the same compound, the IC50 (LB996-RCC) was 1.22 µM, the IC50 (KARPAS-299) was > 4 µM and the IC50 (MN-60) was > 4 µM. For the same compound, the IC50 (KURAMOCHI) was > 4 µM, the IC50 (NCI-H1581) was > 4 µM and the IC50 (NCI-H446) was > 4 µM. The IC50 (EW-1) was > 4 µM, the IC50 (EKVX) was 1.01 µM and the IC50 (COLO-320-HSR) was > 4 µM. For the same compound, the IC50 (TE-6) was > 4 µM, the IC50 (LB2241-RCC) was 0.304 µM and the IC50 (TGW) was > 4 µM. The IC50 (NB13) was > 4 µM, the IC50 (GCIY) was 0.434 µM and the IC50 (LB2518-MEL) was > 4 µM. For the same compound, the IC50 (NOMO-1) was > 4 µM, the IC50 (NMC-G1) was > 4 µM and the IC50 (NCI-H747) was > 4 µM. The IC50 (HT-144) was > 4 µM, the IC50 (TE-1) was > 4 µM and the IC50 (ALL-PO) was > 4 µM. For the same compound, the IC50 (MLMA) was > 4 µM, the IC50 (RPMI-8226) was > 4 µM and the IC50 (HL-60) was 0.426 µM. The IC50 (NCI-H1304) was > 4 µM, the IC50 (KINGS-1) was > 4 µM and the IC50 (SW982) was > 4 µM. For the same compound, the IC50 (GT3TKB) was > 4 µM, the IC50 (NCI-H1838) was > 4 µM and the IC50 (D-502MG) was 2.32 µM. The IC50 (HCE-4) was > 4 µM.
`NC1(c2ccc(-c3nc4ccn5c(=O)[nH]nc5c4cc3-c3ccccc3)cc2)CCC1` [MK-2206] was tested, and the IC50 (OS-RC-2) was 3.11 µM, the IC50 (HD-MY-Z) was > 4 µM and the IC50 (MHH-PREB-1) was 3.72 µM. For the same compound, the IC50 (Calu-6) was > 4 µM, the IC50 (KM-H2) was > 4 µM and the IC50 (GOTO) was > 4 µM. For the same compound, the IC50 (A253 cell line) was > 4 µM, the IC50 (A3-KAW) was > 4 µM and the IC50 (KS-1) was 2.38 µM. For the same compound, the IC50 (CW-2) was > 4 µM, the IC50 (NKM-1) was 0.863 µM and the IC50 (OMC-1) was 1.75 µM. The IC50 (AM-38) was > 4 µM, the IC50 (DSH1) was > 4 µM and the IC50 (LB996-RCC) was > 4 µM. The IC50 (KARPAS-299) was > 4 µM, the IC50 (MN-60) was 2.3 µM and the IC50 (KURAMOCHI) was > 4 µM. For the same compound, the IC50 (NCI-H1581) was > 4 µM, the IC50 (NCI-H446) was > 4 µM and the IC50 (EW-1) was > 4 µM. The IC50 (EKVX) was > 4 µM, the IC50 (COLO-320-HSR) was > 4 µM and the IC50 (TE-6) was > 4 µM. The IC50 (LB2241-RCC) was 0.997 µM, the IC50 (TGW) was > 4 µM and the IC50 (NB13) was > 4 µM. For the same compound, the IC50 (GCIY) was > 4 µM, the IC50 (LNCaP-Clone-FGC) was 0.61 µM and the IC50 (LB2518-MEL) was > 4 µM. The IC50 (NOMO-1) was > 4 µM, the IC50 (NMC-G1) was > 4 µM and the IC50 (NCI-H747) was 3.21 µM. The IC50 (HT-144) was > 4 µM, the IC50 (TE-1) was > 4 µM and the IC50 (ALL-PO) was > 4 µM. The IC50 (MLMA) was > 4 µM, the IC50 (RPMI-8226) was 2.63 µM and the IC50 (HL-60) was > 4 µM. The IC50 (NCI-H1304) was > 4 µM, the IC50 (KINGS-1) was > 4 µM and the IC50 (SW982) was > 4 µM. The IC50 (GT3TKB) was > 4 µM, the IC50 (D-502MG) was > 4 µM and the IC50 (HCE-4) was > 4 µM.

Reference: ChEMBL document CHEMBL1201861, “Genomics of Drug Sensitity in Cancer screening data, Wellcome Trust Sanger Institute”
